The values that follow come from patent US20210300962A1, “LIPID PRODRUGS OF PREGNANE NEU[…] USES THEREOF” (PureTech LYT, Inc., priority 2018, published 2021).

A short description of data set [1]: Dog pharmacokinetic studies: plasma ALLO after oral ALLO or prodrug, and after IV ALLO. It is filed as in vivo, male beagle dogs. The settings on record: beagle dogs; for Vd: beagle, iv. The method, then:
For the dog studies, male beagle dogs (body weights between 9.1-11.7 kg) were held in a large-animal research facility prior to the commencement of studies. The dogs were fasted for 12 h up to 30 min prior to drug administration. At 30 minutes prior to drug dosing, each animal received ˜20 g of high fat food (Teklad, TD.07096), then each animal was offered 100 g of beef-flavored canned food. Food was removed immediately prior to dosing. Following the 4 hour sample collection, food was returned (any remaining canned food and 200 g of regular diet). Water was available ad libitum throughout the study for all dogs.
For oral administration, test compounds were prepared in a suitable formulation such as a long-chain lipid based self-emulsifying drug delivery system (SEDDS) consisting of 30.5% w/w soybean oil, 30.5% w/w Maisine-CC, 31.6% w/w Cremophor EL and 7.4% w/w ethanol. Formulations were filled into hard gelatin capsules. Each animal received 2 size 000 capsules that in total contained ALLO (at 1.5 mg/kg dose) or ALLO prodrug (at 5 mg/kg dose, equivalent to approx. 1.5 mg/kg parent ALLO) in 2 grams of SEDDS formulation. Compound dissolved in the formulation was administrated to the fed dog by placing the capsules as far posterior to the pharynx as possible, closing the mouth and rubbing the throat to stimulate swallowing. Subsequently 10 mL of water was administered orally via a syringe.
For the IV group, parent ALLO (0.5 mg/kg dose) was administered as an intravenous bolus (formulation contained ALLO at concentration of 1.5 mg/mL) by way of a percutaneous catheter placed in a peripheral vein, followed by a 2 mL flush with normal saline.
Blood samples (approx. 1.5 mL each) were taken via venepuncture of the cephalic vein 5 min prior to administration up to 48 hours post-dosing. During the blood sample collection period the animals had free access to water but remained fasted for a further 4 hours following drug administration.
Plasma was separated by centrifugation and aliquots of each plasma sample transferred into eppendorf tubes and stored at −80° C. prior to analysis.
Doses are normalized to a 1.5 mg/kg equivalent ALLO dose and data are presented as mean±SD (n=4). AUC was calculated using the trapezoidal method in PKsolver—non-compartment model. Statistical significance is defined as α<0.05 when using One-way ANOVA followed by Tukey's test (paired comparison).

The nature of data set [2]: Non-human primate pharmacokinetic studies: plasma ALLO after oral ALLO or prodrug, and after IV ALLO. It is filed as in vivo, male cynomolgus monkeys. The settings on record: cynomolgus monkeys; for Vd: iv. The protocol:
For the non-human primate studies, male cynomolgus monkeys were held in a large-animal research facility prior to the commencement of studies. The monkeys were fasted overnight up to 30 min prior to drug administration. Thirty minutes prior to drug administration, each monkey received 30 mL of Ensure Milkshake via oral gavage and was allowed access to a normal ration of primate chow. The primate chow was removed at the time of drug administration and was then returned 4 hours after drug administration. Water was available ad libitum throughout the study for all monkeys.
Test compounds were prepared in a long-chain lipid-based self-emulsifying drug delivery system (SEDDS) consisting of 30.5% w/w soybean oil, 30.5% w/w Maisine-CC, 31.6% w/w Cremophor EL, and 7.4% w/w ethanol. Parent ALLO (i.e., non-prodrug allopregnanolone) was prepared in a formulation of 20% aqueous hydroxypropyl-p-cyclodextrin. Formulations were filled into hard gelatin capsules. Test compounds were dosed at 5 mg/kg, and parent ALLO was dosed at 1.5 mg/kg. Drug was administered in a single capsule followed by 10 mL of water by oral gavage. For the IV group, parent ALLO (0.5 mg/kg dose) was administered as an intravenous bolus (formulation contained ALLO at a concentration of 1.5 mg/mL) by way of a percutaneous catheter placed in a peripheral vein followed by a 2 mL flush with normal saline prior to removal of the catheter.
After oral administration, blood samples (approx. 1 mL each) were taken via venipuncture of a peripheral vein 5 min prior to administration up to 48 hours post-dosing. Blood samples were transferred into tubes containing dipotassium EDTA anticoagulant, and the tubes were placed on crushed ice until processing. Within 30 minutes of collection, the blood samples were processed to isolate plasma by centrifuging at 2200×g for 10 minutes at 5° C.±3° C. The plasma samples were stored in polypropylene tubes at −80° C. prior to analysis.
Doses are normalized to a 1.5 mg/kg equivalent ALLO dose and data are presented as mean±SD (n=6). AUC was calculated using the trapezoidal method in PKsolver—non-compartment model. Statistical significance is defined as α<0.05 when using One-way ANOVA followed by Tukey's test (paired comparison).

The nature of data set [3]: Rat pharmacokinetic studies: plasma allopregnanolone after oral prodrug or ALLO, and after IV ALLO. In kind it is in vivo, male Sprague-Dawley rats. The protocol:
In order to assess the oral bioavailability of test compounds, pharmacokinetic studies were conducted using the following procedure. The day before drug administration, male Sprague-Dawley rats (240-320 g) were anesthetized and the carotid artery was cannulated. The rats were then allowed to regain consciousness and fasted overnight prior to the commencement of experiments with free access to water. The next morning, formulations containing parent compounds or prodrugs were administered via oral gavage or via the jugular vein cannula, and blood samples were collected from the carotid artery cannula from −5 min up to 24 h post dosing. During the blood sample collection period the rats had free access to water but remained fasted for a further 8 h following drug administration. In these allopregnanolone (ALLO) related studies, the blood samples were centrifuged at 4500×g for 5 min to separate plasma. Plasma samples were stored at −20° C. prior to assay by HPLC-MS-MS. The whole blood or plasma samples were assayed for free drug (i.e. non-glyceride associated drug) and were not hydrolized prior to assay (as was the case with the lymph samples).
FIG. 3 illustrates dose-normalized ALLO plasma concentrations following oral gavage of ALLO related formulations to conscious, carotid artery-cannulated male SD rats. The ALLO oral formulation for each rat contained 2 mg of parent ALLO (i.e., non-prodrug allopregnanolone) suspended in 2 ml of suspending vehicle (0.50 sodium carboxymethyl cellulose, 0.4% Tween 80 and 0.9% NaCl in water). Prodrug formulations for each rat contained 2 mg of the ALLO prodrug dispersed in 40 mg oleic acid, 25 mg Tween 80 and 2 ml PBS. Doses were normalized to a 2 mg/kg equivalent dose of ALLO. Data are shown as mean±SD n≥3 or mean±range when n=2. […] Doses are normalized to a 2 mg/kg equivalent ALLO dose and data are presented as mean±SD when n≥3 or mean±range when n=2.
Also shown (bottom) is the calculated area under the curve (AUC) over 0-24 h for each of the test compounds as a fraction of the IV-administered allpregnanolone control.

As for `CC(=O)[C@H]1CC[C@H]2[C@@H]3CC[C@H]4C[C@H](O)CC[C@]4(C)[C@H]3CC[C@]12C` [Allopregnanolone, 5α-pregnan-3α-ol-20-one], the “Apparent BA” value is recorded as 100.0% in data set [1] (IV ALLO (reference)) and 100% in data set [2] (IV ALLO (reference)). Also, the Vd in data set [1] (male, dog, plasma, 0.5 mg/kg, IV ALLO, read-out: VSS (volume of distribution during the steady state phase)) was 14 ± 1.7 L/kg; in data set [1] (male, dog, plasma, 0.5 mg/kg, IV ALLO, read-out: VZ (volume of distribution during the elimination phase)), 142 ± 29.5 L/kg; in data set [2] (male, cynomolgus monkey, plasma, 0.5 mg/kg, IV ALLO, read-out: VSS (volume of distribution during the steady state phase)) it was 2.6 ± 0.9 L/kg; in data set [2] (male, cynomolgus monkey, plasma, 0.5 mg/kg, IV ALLO, read-out: VZ (volume of distribution during the elimination phase)) it was 26.9 ± 6.8 L/kg. Besides, the clearance amounted to 160 ± 21.7 mL/min/kg in data set [1] (male, dog, plasma, 0.5 mg/kg, IV ALLO, read-out: Cl (clearance)) and 42.2 ± 9 mL/min/kg in data set [2] (male, cynomolgus monkey, plasma, 0.5 mg/kg, IV ALLO, read-out: Cl (clearance)). In addition, the Tmax in data set [1] (male, dog, plasma, 0.5 mg/kg, IV bolus ALLO) was 0 h; in data set [2] (male, cynomolgus monkey, plasma, 0.5 mg/kg, IV bolus ALLO) it was 4.8 min. Also, the AUC(0-inf) in data set [1] (male, dog, plasma, 0.5 mg/kg, IV bolus ALLO, normalized to 1.5 mg/kg) was found to be 0.498 ± 0.0633 µM·h; in data set [2] (male, cynomolgus monkey, plasma, 0.5 mg/kg, IV bolus ALLO, normalized to 1.5 mg/kg), 1.93 ± 0.373 µM·h. The Cmax is 3.5 ± 0.572 µM in data set [1] (male, dog, plasma, 0.5 mg/kg, IV bolus ALLO, normalized to 1.5 mg/kg, mean±SD (n=4), read-out: Cmax (extrapolated C0)); 4.45 ± 0.73 µM in data set [2] (male, cynomolgus monkey, plasma, 0.5 mg/kg, IV bolus ALLO, normalized to 1.5 mg/kg, mean±SD (n=6)); “below LOQ)” in data set [3] (plasma Allo after oral gavage to rats, doses normalized to 2 mg/kg equivalent ALLO, mean±SD (n≥3) or mean±range (n=2)). Also, the half-life in data set [1] (male, dog, plasma, 0.5 mg/kg, IV bolus ALLO, read-out: T1/2 (elimination phase half-life) (converted)) was 10.3 ± 0.8 h; in data set [2] (male, cynomolgus monkey, plasma, 0.5 mg/kg, IV bolus ALLO, read-out: T1/2 (terminal phase half-life) (converted)), 7.4 ± 1.2 h. The AUC in data set [3] (male, Sprague-Dawley, plasma, 2 mg/kg, rat, IV, equivalent dose of allopregnanolone, n=1, read-out: AUC after intravenous administration) is roughly 1.45 µM·h. In addition, the “plasma levels after oral administration” value in data set [3] (rat, oral parent allopregnanolone) was “below the limit of quantification”.
